Read-outs that look alike come from different tables or passages of the source. Blank lines part the entries; values can stand above or below the compound they belong to.
How the values were obtained:
[1] = test system: LLC tumor; assay: LLC tumor brei model with or without cyclophosphamide; type: in vivo, mouse; conditions: BB 15 mg/kg QD PO; cyclophosphamide 50 mg/kg EOD IP, FIG. 48
[2] = target: PI3K γ (Homo sapiens (Human), UniProt P48736); assay: PI3-Kinase Promega ADP-Glo Max assay; type: biochemical
[3] = target: PI3K-γ in RAW264.7 macrophages (Mus musculus (Mouse), UniProt Q9JHG7); assay: Raw264.7 p110 γ assay (phospho-AKT, C5a stimulated); type: cell-based
[4] = target: PI3K-δ in RAJI cells (Homo sapiens (Human), UniProt O00329); assay: RAJI p110 δ assay (phospho-AKT, anti-human IgM stimulated); type: cell-based
[5] = target: PI3K β (Homo sapiens (Human), UniProt P42338); assay: PI3-Kinase Promega ADP-Glo Max assay; type: biochemical
[6] = target: PI3K α (Homo sapiens (Human), UniProt P42336); assay: PI3-Kinase Promega ADP-Glo Max assay; type: biochemical
[7] = target: PI3K δ (Homo sapiens (Human), UniProt O00329); assay: PI3-Kinase Promega ADP-Glo Max assay; type: biochemical
[8] = Pharmacokinetics of Compound 88, oral; type: in vivo, mouse; conditions: female C57 mice
Method: A similar study was carried out using Compound 88. […] Below is a table that details the results for Compound 88: […]

[9] = test system: LPS induced neutrophil influx in BALF; assay: LPS-induced neutrophilia, oral administration; type: in vivo; conditions: rat, p.o., 4 hours post-LPS challenge
Excerpt: (§1) This study also includes assessment of the exposure to the compounds in plasma and lung tissues.

[10] = test system: CXCL12 induced p-AKT in M1 polarized macrophage; assay: CXCL12-induced p-AKT induction assay, M1 polarized macrophages; type: cell-based, mouse
Excerpt: (§2) Long bones from young C57B6 mice were harvested and bone marrow was extruded by gentle lavage of the bone marrow cavities with a 28 guage needle. Red blood cells were removed using red blood cell lysis buffer (Sigma). Bone marrow cells were differentiated to macrophages using MCSF for 6 days (RPMI and 20% FCS) with one media change (with removal of all non-adherent cells) at day 3. Macrophages were polarized into M0 (MCSF), M1 (MCSF, IFNγ, and LPS for 1 day), or M2 (MCSF, IL4 for 2 days).
(§3) CXCL12-induced p-AKT induction assay: Polarized macrophages were lifted with Acutase, and plated at 0.5M cells per well (0.5 ml) in a deep well (2 ml) non adherant plate in polarization media for 1 hour. […] CXCL12 was added, and the cells were mixed on a plate shaker for 2 minutes. 1 ml of 37 degree FACS Lyse/fix buffer (BD bioscience) was added and the plate was mixed for 1 minute. The plates were spun and decanted and frozen at −80° C. Phospho AKT staining with anti Phospho AKT 473 PERCP labeled (Cell Signaling Technologies) was performed and measured by flow cytometry. Total cell MFI was used to calculate the effect of tested compound on CXCL12 induction of phospho AKT.

[11] = Oral PK in the rat LPS studies (free plasma concentration); type: in vivo; conditions: p.o. 0.2 mg/kg
Excerpt: as §1

[12] = test system: human T cells; assay: Concanavalin A-induced model for activation of human T cells (IFN-γ); type: cell-based; conditions: isoform selective concentrations
[13] = test system: CXCL12 induced p-AKT in M2 polarized macrophage; assay: CXCL12-induced p-AKT induction assay, M2 polarized macrophages; type: cell-based, mouse
Excerpt: as §2, §3

PI3K-γ in RAW264.7 macrophages, sequence (Q9JHG7 whole entry): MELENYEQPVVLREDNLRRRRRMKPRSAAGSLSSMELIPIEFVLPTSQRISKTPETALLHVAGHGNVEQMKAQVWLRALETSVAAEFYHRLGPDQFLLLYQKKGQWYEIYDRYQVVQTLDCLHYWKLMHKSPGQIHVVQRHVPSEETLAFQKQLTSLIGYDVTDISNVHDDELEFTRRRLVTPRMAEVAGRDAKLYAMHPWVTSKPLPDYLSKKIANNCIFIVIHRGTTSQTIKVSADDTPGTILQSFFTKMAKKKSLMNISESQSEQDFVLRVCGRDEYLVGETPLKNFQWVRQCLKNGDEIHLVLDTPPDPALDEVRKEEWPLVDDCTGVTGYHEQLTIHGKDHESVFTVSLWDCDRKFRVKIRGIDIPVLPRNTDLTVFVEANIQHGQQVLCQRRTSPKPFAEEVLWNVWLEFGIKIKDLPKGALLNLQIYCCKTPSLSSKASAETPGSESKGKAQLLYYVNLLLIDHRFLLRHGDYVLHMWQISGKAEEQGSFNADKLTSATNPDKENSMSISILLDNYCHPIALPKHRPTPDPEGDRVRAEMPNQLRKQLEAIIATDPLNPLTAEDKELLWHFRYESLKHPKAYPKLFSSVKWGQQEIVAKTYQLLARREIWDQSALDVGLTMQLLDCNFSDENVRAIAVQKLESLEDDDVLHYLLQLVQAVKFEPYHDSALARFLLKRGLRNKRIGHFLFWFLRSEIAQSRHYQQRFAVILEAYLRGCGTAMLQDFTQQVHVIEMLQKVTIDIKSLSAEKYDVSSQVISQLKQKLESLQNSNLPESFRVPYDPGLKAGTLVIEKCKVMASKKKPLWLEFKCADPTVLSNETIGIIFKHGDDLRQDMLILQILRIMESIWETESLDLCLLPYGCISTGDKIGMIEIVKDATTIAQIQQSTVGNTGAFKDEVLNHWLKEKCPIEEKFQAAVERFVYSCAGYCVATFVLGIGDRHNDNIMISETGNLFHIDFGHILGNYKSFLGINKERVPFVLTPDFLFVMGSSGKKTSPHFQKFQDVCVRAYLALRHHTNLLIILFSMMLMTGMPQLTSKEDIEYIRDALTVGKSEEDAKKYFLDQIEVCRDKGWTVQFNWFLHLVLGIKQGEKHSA
PI3K γ, sequence (P48736 whole entry): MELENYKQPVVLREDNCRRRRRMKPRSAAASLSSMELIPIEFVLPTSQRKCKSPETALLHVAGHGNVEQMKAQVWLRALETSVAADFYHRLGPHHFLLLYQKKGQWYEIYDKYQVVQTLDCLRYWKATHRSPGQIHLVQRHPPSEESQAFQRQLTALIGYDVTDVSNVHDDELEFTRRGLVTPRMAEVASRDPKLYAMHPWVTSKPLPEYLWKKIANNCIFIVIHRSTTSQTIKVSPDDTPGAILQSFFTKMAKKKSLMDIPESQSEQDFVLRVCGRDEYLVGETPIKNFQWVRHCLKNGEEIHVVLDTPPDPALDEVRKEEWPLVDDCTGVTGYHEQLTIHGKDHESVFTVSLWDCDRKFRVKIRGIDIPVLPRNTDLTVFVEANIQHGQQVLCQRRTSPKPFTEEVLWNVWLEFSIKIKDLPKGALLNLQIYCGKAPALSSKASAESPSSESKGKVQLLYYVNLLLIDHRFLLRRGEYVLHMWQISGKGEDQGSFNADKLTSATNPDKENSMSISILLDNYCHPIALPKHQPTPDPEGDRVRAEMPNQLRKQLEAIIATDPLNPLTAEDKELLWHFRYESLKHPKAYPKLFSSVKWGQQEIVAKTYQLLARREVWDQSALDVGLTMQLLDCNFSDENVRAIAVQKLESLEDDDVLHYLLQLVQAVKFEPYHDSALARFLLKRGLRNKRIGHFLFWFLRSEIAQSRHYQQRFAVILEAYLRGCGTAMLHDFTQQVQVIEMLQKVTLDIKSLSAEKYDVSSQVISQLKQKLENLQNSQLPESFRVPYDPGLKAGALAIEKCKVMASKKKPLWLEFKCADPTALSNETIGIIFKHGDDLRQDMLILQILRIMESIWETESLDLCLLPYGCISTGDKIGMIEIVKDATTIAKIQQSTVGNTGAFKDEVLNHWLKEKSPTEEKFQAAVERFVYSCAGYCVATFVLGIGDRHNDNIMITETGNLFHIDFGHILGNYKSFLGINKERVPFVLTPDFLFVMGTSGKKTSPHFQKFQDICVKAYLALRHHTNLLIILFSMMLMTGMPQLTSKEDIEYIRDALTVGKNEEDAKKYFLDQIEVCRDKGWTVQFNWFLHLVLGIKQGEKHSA
PI3K β, sequence (P42338 whole entry): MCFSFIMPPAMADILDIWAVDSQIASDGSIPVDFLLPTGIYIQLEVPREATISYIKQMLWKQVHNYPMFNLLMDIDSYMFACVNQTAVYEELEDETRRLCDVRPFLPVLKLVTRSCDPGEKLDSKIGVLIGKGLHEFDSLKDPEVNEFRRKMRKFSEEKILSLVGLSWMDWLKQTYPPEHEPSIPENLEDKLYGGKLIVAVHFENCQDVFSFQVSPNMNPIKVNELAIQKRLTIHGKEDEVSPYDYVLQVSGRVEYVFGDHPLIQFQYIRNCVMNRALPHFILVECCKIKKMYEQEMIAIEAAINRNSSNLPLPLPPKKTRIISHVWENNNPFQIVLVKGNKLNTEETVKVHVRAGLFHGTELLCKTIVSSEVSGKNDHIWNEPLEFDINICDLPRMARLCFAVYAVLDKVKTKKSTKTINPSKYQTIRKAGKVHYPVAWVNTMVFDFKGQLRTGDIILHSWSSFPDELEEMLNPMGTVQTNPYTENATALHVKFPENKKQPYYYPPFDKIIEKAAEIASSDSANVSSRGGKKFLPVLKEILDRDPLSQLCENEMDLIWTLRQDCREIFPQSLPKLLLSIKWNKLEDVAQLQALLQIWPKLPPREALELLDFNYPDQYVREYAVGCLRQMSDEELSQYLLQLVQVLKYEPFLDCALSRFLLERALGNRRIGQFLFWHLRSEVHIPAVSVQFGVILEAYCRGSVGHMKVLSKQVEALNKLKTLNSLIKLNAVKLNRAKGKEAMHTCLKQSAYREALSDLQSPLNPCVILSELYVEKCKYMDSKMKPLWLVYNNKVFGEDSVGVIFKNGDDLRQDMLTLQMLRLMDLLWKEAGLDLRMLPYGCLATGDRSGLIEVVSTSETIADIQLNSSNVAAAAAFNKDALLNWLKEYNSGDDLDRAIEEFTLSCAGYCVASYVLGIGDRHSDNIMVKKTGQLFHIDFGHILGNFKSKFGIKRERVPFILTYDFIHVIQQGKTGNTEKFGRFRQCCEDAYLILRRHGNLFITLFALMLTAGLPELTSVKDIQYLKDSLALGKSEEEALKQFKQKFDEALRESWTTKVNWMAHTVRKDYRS
PI3K β, sequence (P27986 whole entry partner): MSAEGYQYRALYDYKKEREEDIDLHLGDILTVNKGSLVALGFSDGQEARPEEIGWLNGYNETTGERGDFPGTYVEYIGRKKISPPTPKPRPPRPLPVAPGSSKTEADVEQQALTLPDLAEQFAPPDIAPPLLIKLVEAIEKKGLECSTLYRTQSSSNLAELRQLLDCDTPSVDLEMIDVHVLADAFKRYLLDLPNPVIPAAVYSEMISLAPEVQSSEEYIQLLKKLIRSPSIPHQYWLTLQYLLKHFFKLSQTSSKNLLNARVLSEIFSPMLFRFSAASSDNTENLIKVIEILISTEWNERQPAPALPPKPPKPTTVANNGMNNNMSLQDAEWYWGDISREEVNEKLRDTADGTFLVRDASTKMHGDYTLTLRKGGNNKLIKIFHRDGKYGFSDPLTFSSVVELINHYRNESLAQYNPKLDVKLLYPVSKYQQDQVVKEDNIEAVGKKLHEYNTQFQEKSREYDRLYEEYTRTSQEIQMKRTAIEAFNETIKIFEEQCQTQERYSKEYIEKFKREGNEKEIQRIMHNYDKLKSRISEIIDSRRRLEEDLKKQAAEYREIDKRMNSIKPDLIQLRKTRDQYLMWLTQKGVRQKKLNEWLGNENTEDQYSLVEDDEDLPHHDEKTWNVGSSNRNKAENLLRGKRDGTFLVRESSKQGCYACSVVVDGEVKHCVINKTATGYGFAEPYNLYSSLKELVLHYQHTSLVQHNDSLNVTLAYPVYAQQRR
PI3K-δ in RAJI cells, sequence (O00329 whole entry): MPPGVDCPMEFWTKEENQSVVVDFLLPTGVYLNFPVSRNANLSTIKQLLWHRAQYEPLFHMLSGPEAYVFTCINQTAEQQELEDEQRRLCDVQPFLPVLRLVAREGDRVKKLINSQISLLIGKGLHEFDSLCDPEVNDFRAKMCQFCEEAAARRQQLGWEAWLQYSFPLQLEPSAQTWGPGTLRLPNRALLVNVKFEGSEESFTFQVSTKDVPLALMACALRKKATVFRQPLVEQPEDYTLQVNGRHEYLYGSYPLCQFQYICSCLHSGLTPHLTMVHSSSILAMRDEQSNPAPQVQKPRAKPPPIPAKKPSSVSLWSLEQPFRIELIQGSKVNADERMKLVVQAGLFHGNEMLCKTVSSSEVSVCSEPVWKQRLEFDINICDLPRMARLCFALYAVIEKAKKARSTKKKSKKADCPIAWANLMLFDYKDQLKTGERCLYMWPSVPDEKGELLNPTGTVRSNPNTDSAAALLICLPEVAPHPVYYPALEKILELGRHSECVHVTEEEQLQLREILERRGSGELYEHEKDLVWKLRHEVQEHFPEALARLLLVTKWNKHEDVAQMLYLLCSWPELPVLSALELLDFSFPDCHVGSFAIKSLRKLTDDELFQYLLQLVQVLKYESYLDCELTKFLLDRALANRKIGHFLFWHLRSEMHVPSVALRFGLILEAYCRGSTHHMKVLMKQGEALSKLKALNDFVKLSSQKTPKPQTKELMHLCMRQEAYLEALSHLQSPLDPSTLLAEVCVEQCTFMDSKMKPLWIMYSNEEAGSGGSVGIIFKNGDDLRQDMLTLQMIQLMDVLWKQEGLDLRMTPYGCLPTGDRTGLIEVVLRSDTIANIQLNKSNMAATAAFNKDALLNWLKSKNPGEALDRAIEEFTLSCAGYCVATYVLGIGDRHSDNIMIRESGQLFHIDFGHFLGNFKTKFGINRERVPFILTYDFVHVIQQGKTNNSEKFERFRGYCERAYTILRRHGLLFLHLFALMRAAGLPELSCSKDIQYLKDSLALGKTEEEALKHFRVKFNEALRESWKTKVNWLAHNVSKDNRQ
PI3K-δ in RAJI cells, sequence (P27986 whole entry partner): as the sequence (P27986 whole entry partner) above

SMILES: O=P1(N(CCCl)CCCl)NCCCO1 (stereo not shown) [cyclophosphamide, reference compound]
Tumor growth, LLC tumor brei model [1]: reduced tumor growth by about the same amount

SMILES: C/C=C/c1cccc2cc([C@H](C)NC(=O)c3c(N)nn4cccnc34)n(-c3ccccc3)c(=O)c12 [Compound 70]
PI3K δ/PI3K γ IC50 (selectivity) [2]: X (key: V = 0.1 to 1; W = > 1 to <10; X = 10 to <50; Y = 50 to <850) | RAJI δ/Raw264.7 γ IC50 (selectivity) [3]: X (key: V = 0.1 to 1; W = > 1 to <10; X = 10 to <50; Y = 50 to <850)

SMILES: C[C@H](NC(=O)c1c(N)nn2cccnc12)c1nc2cccc(C#CC(C)(C)C)c2c(=O)n1-c1ccccc1 [Compound 3]
IC50 [4]: 1 to 10 µM | IC50 [5]: 5 to 10 µM | IC50 [6]: 5 to 10 µM | IC50 [7]: 5 to 10 µM | IC50 [2]: 1 to 5 µM | PI3K δ/PI3K γ IC50 (selectivity) ([2]; ratio of biochemical IC50s): W (W = > 1 to <10) | RAJI δ/Raw264.7 γ IC50 (selectivity) [3]: X (key: V = 0.1 to 1; W = > 1 to <10; X = 10 to <50; Y = 50 to <850) | IC50 ([3]; phospho-AKT): 0.05 to 0.1 µM

SMILES: C[C@H](NC(=O)c1c(N)nn2cccnc12)c1cc2cccc(C#CC3CC3)c2c(=O)n1-c1ccccc1 [Compound 9]
PI3K δ/PI3K γ IC50 (selectivity) [2]: X (key: V = 0.1 to 1; W = > 1 to <10; X = 10 to <50; Y = 50 to <850) | RAJI δ/Raw264.7 γ IC50 (selectivity) [3]: Y (key: V = 0.1 to 1; W = > 1 to <10; X = 10 to <50; Y = 50 to <850)

PI3K δ/PI3K γ IC50 (selectivity) ([2]; ratio of biochemical IC50s): W (W = > 1 to <10) | RAJI δ/Raw264.7 γ IC50 (selectivity) ([3]; ratio of cellular IC50s): W (W = > 1 to <10)
SMILES: Cc1cnc(C(=O)N[C@@H](C)c2cc3cccc(C#Cc4cnn(C)c4)c3c(=O)n2-c2ccccc2)c(N)n1 [Compound 68]

Stability in serum [8]: good stability in serum
SMILES: Cc1c(C#Cc2cccc3nc([C@H](C)NC(=O)c4c(N)nn5cccnc45)n(-c4ccccc4)c(=O)c23)cnn1C [Compound 88, (S)-2-amino-N-(1-(5-((1,5-dimethyl-1H-pyrazol-4-yl)ethynyl)-4-oxo-3-phenyl-3,4-dihydroquinazolin-2-yl)ethyl)pyrazolo[1,5-a]pyrimidine-3-carboxamide]

SMILES: CC(C)n1c([C@H](C)Nc2ncnc(N)c2C#N)cc2cccc(-c3ccc(=O)n(C)c3)c2c1=O [Compound AA]
Neutrophil in bronchoalveolar lavage fluid (BALF) [9]: reduced neutrophil | Inhibition of CXCL12-induced p-AKT [10]: did not significantly inhibit | Free Plasma Conc (nM) […] ([11]; approximately 4 hours post LPS challenge): BLQ | Free Plasma Conc (nM) 1.5 h ([11]; at time of LPS challenge): BLQ | effect on IFN-γ [12]: highly selective inhibitor | Inhibition of CXCL12-induced p-AKT [13]: did not significantly inhibit

Reference: US11541059B2, “Heterocyclic compounds and uses thereof” (Infinity Pharmaceuticals, Inc., priority 2014, dated 2023)
